Test results as given in patent US12404262B2 (priority 2021, dated 2025).

Conditions: 1.0% DMSO, 24-hour incubation at ambient temperature, maximum theoretical 100 μM; for pH 2 solubility: 0.1N HCl, first value of the cell; for pH 7 solubility: 1×PBS buffer (pH 7.4), second value of the cell

Row | pH 2 solubility | pH 7 solubility | SMILES
1 | 1 μM | 13 μM | CC(C)(C#Cc1ccc(-c2ccc(Cl)c3c(N(C(=O)NCCCCP(=O)(O)O)S(C)(=O)=O)nn(CC(F)(F)F)c23)c([C@H](Cc2cc(F)cc(F)c2)NC(=O)Cn2nc(C(F)(F)F)c3c2C(F)(F)[C@@H]2C[C@H]32)n1)S(C)(=O)=O [Compound 55, (4-(3-(4-chloro-7-(2-((S)-1-(2-((3bS,4aR)-5,5-difluoro-3-(trifluoromethyl)-3b,4,4a,5-tetrahydro-1H-cyclopropa[3,4]cyclopenta[1,2-c]pyrazol-1-yl)acetamido)-2-(3,5-difluorophenyl)ethyl)-6-(3-methyl-3-(methylsulfonyl)but-1-yn-1-yl)pyridin-3-yl)-1-(2,2,2-trifluoroethyl)-1H-indazol-3-yl)-3-(methylsulfonyl)ureido)butyl)phosphonic acid]
2 | 1 μM | 9 μM | C[C@@H](O)[C@H](NC(=O)N(c1nn(CC(F)(F)F)c2c(-c3ccc(C#CC(C)(C)S(C)(=O)=O)nc3[C@H](Cc3cc(F)cc(F)c3)NC(=O)Cn3nc(C(F)(F)F)c4c3C(F)(F)[C@@H]3C[C@H]43)ccc(Cl)c12)S(C)(=O)=O)C(=O)O [Compound 61, ((4-chloro-7-(2-((S)-1-(2-((3bS,4aR)-5,5-difluoro-3-(trifluoromethyl)-3b,4,4a,5-tetrahydro-1H-cyclopropa[3,4]cyclopenta[1,2-c]pyrazol-1-yl)acetamido)-2-(3,5-difluorophenyl)ethyl)-6-(3-methyl-3-(methylsulfonyl)but-1-yn-1-yl)pyridin-3-yl)-1-(2,2,2-trifluoroethyl)-1H-indazol-3-yl)(methylsulfonyl)carbamoyl)-L-threonine]
3 | 4 μM | 14 μM | C[C@@H](OP(=O)(O)O)[C@H](NC(=O)N(c1nn(CC(F)(F)F)c2c(-c3ccc(C#CC(C)(C)S(C)(=O)=O)nc3[C@H](Cc3cc(F)cc(F)c3)NC(=O)Cn3nc(C(F)(F)F)c4c3C(F)(F)[C@@H]3C[C@H]43)ccc(Cl)c12)S(C)(=O)=O)C(=O)O [Compound 62, N-((4-chloro-7-(2-((S)-1-(2-((3bS,4aR)-5,5-difluoro-3-(trifluoromethyl)-3b,4,4a,5-tetrahydro-1H-cyclopropa[3,4]cyclopenta[1,2-c]pyrazol-1-yl)acetamido)-2-(3,5-difluorophenyl)ethyl)-6-(3-methyl-3-(methylsulfonyl)but-1-yn-1-yl)pyridin-3-yl)-1-(2,2,2-trifluoroethyl)-1H-indazol-3-yl)(methylsulfonyl)carbamoyl)-O-phosphono-L-threonine]
4 | 1 μM | 52 μM | CC(C)(C#Cc1ccc(-c2ccc(Cl)c3c(N(C(=O)N[C@@](C)(CC(=O)O)C(=O)O)S(C)(=O)=O)nn(CC(F)(F)F)c23)c([C@H](Cc2cc(F)cc(F)c2)NC(=O)Cn2nc(C(F)(F)F)c3c2C(F)(F)[C@@H]2C[C@H]32)n1)S(C)(=O)=O [Compound 65, (S)-2-(3-(4-chloro-7-(2-((S)-1-(2-((3bS,4aR)-5,5-difluoro-3-(trifluoromethyl)-3b,4,4a,5-tetrahydro-1H-cyclopropa[3,4]cyclopenta[1,2-c]pyrazol-1-yl)acetamido)-2-(3,5-difluorophenyl)ethyl)-6-(3-methyl-3-(methylsulfonyl)but-1-yn-1-yl)pyridin-3-yl)-1-(2,2,2-trifluoroethyl)-1H-indazol-3-yl)-3-(methylsulfonyl)ureido)-2-methylsuccinic acid]
